Read-outs that look alike come from different tables or passages of the source. Square brackets hold non-standard residues; d marks the D form. Ends that are not written are not given here. Peptide text beside a SMILES is read from it. * marks the point of attachment. Palmitoyl = CCCCCCCCCCCCCCCC(=O)*; Dap = NC[C@H](N)C(=O)O; Aib = CC(C)(N)C(=O)O
Assays:
HEK 293T/17 cells [1] = tested on: HEK 293T/17 cells
Description: Cellular toxicity was assessed using the CellTiter 96 Cell Proliferation Assay (Promega, Madison Wis.) according to the manufacturer's instructions. This assay is based upon the conversion of a tetrazolium substrate to a formazan product by viable cells at the assay end point (see reference 24). Cells (1×10^4 cells/well) were cultured in 96-well microtiter plates in complete growth medium in the presence of increasing concentrations of QDs, free peptide or polymer, or QDs in complex with peptide or polymer. In each case, the materials were incubated with the cells for the time required for efficient QD uptake. The materials were subsequently replaced with complete growth medium and the cells were cultured for 72 hours.

[2] = target: T1, Palmitoyl Protein Thioesterase 1 (PPT1) (Homo sapiens, UniProt P50897); conditions: competitive inhibitors; acidic environments; cited from earlier work
T1 sequence (P50897 28-306): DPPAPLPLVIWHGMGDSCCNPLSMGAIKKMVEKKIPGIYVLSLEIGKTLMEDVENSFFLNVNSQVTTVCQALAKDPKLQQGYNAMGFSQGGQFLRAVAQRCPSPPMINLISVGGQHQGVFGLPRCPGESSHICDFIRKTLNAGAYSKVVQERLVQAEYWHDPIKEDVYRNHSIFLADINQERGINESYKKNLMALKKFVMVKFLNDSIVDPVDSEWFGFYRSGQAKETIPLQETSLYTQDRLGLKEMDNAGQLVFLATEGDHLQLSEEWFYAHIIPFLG

HEK 293T/17 cells [3] = assay: FRET monitoring of intracellular stability of polyhistidine-QD association; format: cell-based, Human; conditions: over three days, no QDs present
Description: (§1) Merged images were generated using Adobe PhotoShop.
To investigate this issue, QD-peptide conjugates were prepared that engaged in FRET and their intracellular interactions were monitored over time. 510 nm DHLA-capped QDs were first assembled with an average of ˜2 Cy3-labeled His6-peptides and then the CPP was added to form the full conjugate (schematic in FIG. 3A). Due to the peptide's small size and proximity of the Cy3 acceptor to the nanocrystal surface, this valence results in a ca. 40% quenching of the QD PL by FRET. The resulting conjugates were delivered to HEK 293T/17 cells and the cells were cultured for three days. QD-donor and Cy3-acceptor FRET interactions over time within the cells were measured by exciting the QD and collecting side-by-side split fluorescence images using the DualView system and deconvoluting the subsequent intensity data. […] When the Cy3/QD emission ratio (normalized and corrected for direct Cy3-acceptor excitation) was calculated a gradual decrease was observed over time, culminating in a 36% decrease over three days (FIG. 3C). […] When Cy3 was delivered to the endosomes as a Cy3-labeled transferrin conjugate (no QDs present), the fluorescence output of the dye decreased approximately 34% over the same time period, in excellent agreement with the decrease observed in the above QD-CPP-Cy3-labeled peptide constructs (FIG. 3D). […]

HEK 293T/17 cells [4] = assay: Cellular delivery of QDs, intracellular fate by fluorescence microscopy; conditions: summary of QD delivery strategies; some agents also tested in COS-1
Description: Human embryonic kidney (HEK 293T/17) and African green monkey kidney (COS-1) cell lines (ATCC, Manassas, Va.) were cultured in complete growth medium (Dulbecco's Modified Eagle's Medium (DMEM; purchased from ATCC)) supplemented with 1% (v/v) antibiotic/antimycotic and 10% (v/v) heat inactivated fetal bovine serum (ATCC). Cells were cultured in T-25 flasks and incubated at 37° C. under 5% CO2 atmosphere and a subculture was performed every 3-4 days (see reference 13).
The QD delivery experiments were performed on adherent cells seeded into the wells of Lab-Tek 8-well chambered #1 borosilicate coverglass (Nalge Nunc, Rochester, N.Y.) coated with 2 μg/mL fibronectin. For electroporation and nucleofection, adherent cells were harvested by trypsinization prior to performing QD delivery to cells in suspension. Cells were then seeded to chambered coverglass wells and imaged after cell attachment. The endosomal marker AlexaFluor647-transferrin was included as indicated in the text. For imaging, cells were washed with phosphate buffered saline (PBS, 137 mM NaCl, 10 mM phosphate, 3 mM KCl, pH 7.4), fixed with 3.7% paraformaldehyde in PBS and nuclei were stained with DAPI (Sigma) unless otherwise indicated.
For electroporation, cells were harvested by trypsinization and recovered for 1 hour in complete growth medium, pelleted, and resuspended in PBS. 510 nm DHLA-PEG QDs (0.5 μM final concentration) were mixed with 1×10^4 cells to a final volume of 100 μL in PBS in a 0.2 mm electroporation cuvette. The cuvette was subjected to 100 V for a 20 ms pulse using a GenePulser XCell electroporator (Bio-Rad, Hercules, Calif.). Cells were resuspended in complete growth medium, seeded into fibronectin-coated 8-well chambered coverglass, fixed and imaged after 24 hrs. For nucleofection delivery, 1×10^6 cells were harvested and resuspended in 100 μL of NUCLEOFECTOR reagent (Amaxa, Gaithersburg, Md.). 510 nm DHLA-PEG QDs were included at a final concentration of 0.4 μM. The cell/QD/reagent mixture was pulsed in the NUCLEOFECTOR using a preset protocol adapted for each specific cell line (20, 21). Cells were cultured and imaged as described for electroporation.
The INFLUX cell-loading reagent mediates the intracellular release of materials internalized via pinocytic vesicles by delivering the materials to cells in a hypertonic medium followed by the transfer of the cells to a hypotonic medium to induce vesicle disruption (see reference 22). 510 nm DHLA-PEG QDs were diluted to a final concentration of 300-800 nM in the supplied hypertonic delivery media according to manufacturer's instructions and incubated on the cells for 30 min at 37° C. The hypertonic medium was exchanged for hypotonic medium (serum-free culture medium diluted by 40% with deionized water) and incubated on the cells for 3 min. The cells were then recovered in complete growth medium for 30 min and cultured for various lengths of time prior to washing and fixation for imaging.
520 nm QDs with a 1:1 mixed surface of DHLA:DHLA-PEG were incubated with LIPOFECTAMINE 2000 for 20 min in serum free medium at a ratio of 1 μL LIPOFECTAMINE 2000 per 1.5 pmol QD. The complexes, at a final QD concentration of 75 nM, were incubated with the cells for 4 hours, removed and replaced with complete growth medium. The cells were then cultured for 24-36 h prior to washing and fixation.
PEI was incubated with 520 nm mixed surface DHLA:DHLA-PEG QDs in serum free medium at a ratio of 10 μg PEI per 1 pmol QD for 15 min. […] The complexes were then diluted into serum free media to a final QD concentration of 75-100 nM, incubated with cells for 2 h and removed. Cells were then cultured in complete media for 24-36 h, washed and fixed.
A stock solution of 520 nm DHLA:DHLA-PEG QDs (1 μM in 0.1 M borate buffer, pH 8.9) was diluted to 0.5 μM in HEPES (4-(2-hydroxyethyl)-1-piperazineethanesulfonic acid, pH 8.2).

HEK 293T/17 cells [5] = conditions: cited from earlier work
COS-1 cells = assay: Cellular uptake and endosomal escape of QD-peptide assemblies, fluorescence microscopy; format: cell-based, African green monkey; conditions: COS1 cells
Description: as §1
The peptide assemblies were incubated with COS-1 cells for 1 hr, removed, and the cells were subsequently cultured for 24 hr prior to fixation. An AlexaFluor 647-transferrin (Tf) conjugate was included during the incubation to label the vesicles of the endocytic pathway. Cell nuclei were stained with DAPI.

HeLa cells = assay: QD uptake and endosomal escape in HeLa cells; format: cell-based; conditions: 163 HeLa cells, Palm-1 conjugated to a QD
Description: The Palm-1 peptide was also tested in HeLa cells, and found to be very effective in promoting endosomal escape.

[6] = tested on: COS-1 and HEK 293T/17 cells; assay: Cellular delivery of QDs, result stated for both cell lines together; format: cell-based, African green monkey; Human; conditions: for intracellular distribution of QDs: both cell lines; for degree of endocytic uptake: compared with Palm-1, 72 h observation
Source text: as §1

## CC(C)C[C@H](NC(=O)CNC(=O)[C@H](Cc1c[nH]c2ccccc12)NC(=O)[C@H](Cc1c[nH]cn1)NC(=O)[C@H](Cc1c[nH]cn1)NC(=O)[C@H](Cc1c[nH]cn1)NC(=O)[C@H](Cc1c[nH]cn1)NC(=O)[C@H](Cc1c[nH]cn1)NC(=O)[C@@H](N)Cc1c[nH]cn1)C(=O)N[C@@H](C)C(=O)NC(C)(C)C(=O)N[C@@H](CO)C(=O)NCC(=O)N1CCC[C@H]1C(=O)N[C@@H](CCCCN)C(=O)N[C@@H](CCCCN)C(=O)N[C@@H](CCCCN)C(=O)N[C@@H](CCCNC(=N)N)C(=O)N[C@@H](CCCCN)C(=O)N[C@H](C(=O)O)C(C)C [NLS peptide, reference compound] (H-HHHHHHWGLA[Aib]SGPKKKRKV-OH)
HEK 293T/17 cells [1]
  Toxicity: minimally toxic

## AcG(Pal)DapVKIKK
[2]
  inhibition of palmitoyl thioesterase: low micromolar affinity

## Cy3-labeled transferrin conjugate: Cy3 delivered to endosomes as labeled transferrin, no QDs
HEK 293T/17 cells [3]
  decrease of fluorescence output of the Cy3 dye: approximately 34%

## GDap(Pal)VKIKK
[2]
  inhibition of palmitoyl thioesterase: low micromolar range

## R9GGLA(Aib)SGWKH6 [CPP peptide]
HEK 293T/17 cells [4]
  Quantum Dot Fate: Endosomal, QDs punctate
HEK 293T/17 cells [5]
  Toxicity: minimally toxic

## WGDapaVKIKK(P)9GG(H)6 [JB577]
HEK 293T/17 cells [4]
  Quantum Dot Fate: Cytosolic, QDs dispersed
COS-1 cells; QD-peptide assemblies
  % Escape in cells with uptake: 77%
COS-1 cells; first word of the cell
  Overall uptake/escape: uptake: High
COS-1 cells; second word of the cell
  Overall uptake/escape: escape: high
HeLa cells
  QD uptake: 90%
  endosomal escape of the cells with uptake: 86%
  endosomal escape of the total: 77%
HEK 293T/17 cells [1]
  Toxicity: minimally toxic

## WGDapaVKIKKGL(A)4GG(H)6 (WG[Dap](Palmitoyl)VKIKKGLAAAAGGHHHHHH) [Palm-2, No (Pro)9, short linker]
[6]
  intracellular distribution of QDs: remained completely sequestered within endosomes
  degree of endocytic uptake: significant reduction in the degree of endocytic uptake

## WGDapaVKIKKGLPAAGG(H)6 [Palm-3]
[6]
  intracellular distribution of QDs: remained completely sequestered within endosomes
  degree of endocytic uptake: significant reduction in the degree of endocytic uptake
